Legend:
hERG ion channel = hERG ion channel (Homo sapiens, UniProt Q12809); assay: hERG K+ channel binding assay, displacement of [3H] dofetilide; conditions: for Ki (hERG) column, value given as % (1 μM): test concentration 1 μM
[1] = tested on: Sprague Dawley rats (mechanical allodynia after spinal nerve ligature); assay: Chung model: mononeuropathic pain after spinal nerve ligature (SNL); assay type: in vivo; conditions: at 5 μg/kg

hERG ion channel, sequence (Q12809 whole entry): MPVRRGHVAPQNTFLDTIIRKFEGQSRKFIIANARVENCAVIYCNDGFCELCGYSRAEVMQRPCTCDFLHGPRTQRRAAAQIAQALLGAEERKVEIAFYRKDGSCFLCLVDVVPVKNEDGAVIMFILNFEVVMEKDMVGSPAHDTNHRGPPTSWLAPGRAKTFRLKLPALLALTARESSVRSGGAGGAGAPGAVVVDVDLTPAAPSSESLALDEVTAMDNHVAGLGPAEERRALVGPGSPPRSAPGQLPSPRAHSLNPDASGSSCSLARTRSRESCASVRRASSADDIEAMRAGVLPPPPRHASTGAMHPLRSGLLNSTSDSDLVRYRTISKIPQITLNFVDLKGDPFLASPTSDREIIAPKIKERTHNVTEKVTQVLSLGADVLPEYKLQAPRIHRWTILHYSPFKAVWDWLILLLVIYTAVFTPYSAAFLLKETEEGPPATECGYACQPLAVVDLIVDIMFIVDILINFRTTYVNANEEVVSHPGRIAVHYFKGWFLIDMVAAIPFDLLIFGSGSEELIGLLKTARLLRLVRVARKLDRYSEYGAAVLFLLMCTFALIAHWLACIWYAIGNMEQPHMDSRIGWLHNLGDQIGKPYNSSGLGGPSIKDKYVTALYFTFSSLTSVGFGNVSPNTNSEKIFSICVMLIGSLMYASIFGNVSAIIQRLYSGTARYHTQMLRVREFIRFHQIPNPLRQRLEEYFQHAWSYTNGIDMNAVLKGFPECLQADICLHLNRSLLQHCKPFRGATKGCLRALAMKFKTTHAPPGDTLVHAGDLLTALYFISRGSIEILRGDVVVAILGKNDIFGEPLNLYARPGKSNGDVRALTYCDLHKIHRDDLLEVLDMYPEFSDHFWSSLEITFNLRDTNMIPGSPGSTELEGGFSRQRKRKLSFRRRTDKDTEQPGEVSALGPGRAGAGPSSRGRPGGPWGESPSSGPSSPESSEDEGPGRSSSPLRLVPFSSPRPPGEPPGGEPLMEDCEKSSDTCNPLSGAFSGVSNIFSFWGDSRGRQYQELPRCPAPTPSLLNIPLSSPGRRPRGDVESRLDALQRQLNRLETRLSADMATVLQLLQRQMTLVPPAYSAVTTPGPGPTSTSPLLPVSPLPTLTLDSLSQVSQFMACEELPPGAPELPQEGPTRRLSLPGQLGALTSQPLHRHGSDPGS

CN(C)C1(Cc2ccccc2)CCC2(CCCc3c2[nH]c2ccccc32)CC1 (stereo not drawn)
melting point: 174 to 186 °C

CN(C)C1(c2ccccc2)CCC2(CC1)NCCc1c2[nH]c2ccccc12 (single isomer, unassigned) [C-1, reference compound]
Ki (hERG) column, value given as % (1 μM) (hERG ion channel): 19% (1 μM)

CN(C)C1(c2ccccc2)CCC2(CC1)NCCc1c2[nH]c2ccccc12 (single isomer, unassigned) [C-2, reference compound]
Ki (hERG ion channel): 490 nM

CN(C)C1(c2ccccc2)CCC2(CCCc3c2[nH]c2ccccc32)CC1 (single isomer, unassigned) [Ex. 1, N,N-dimethyl-4′-phenyl-2,3,4,9-tetrahydrospiro[carbazole-1,1′-cyclohexane]-4′-amine]
Ki (hERG) column, value given as % (1 μM) (hERG ion channel): 13% (1 μM)

CN(C)C1(c2ccccc2)CCC2(CCCc3c2[nH]c2ccccc32)CC1 (single isomer, unassigned) [Ex. 2, N,N-dimethyl-4′-phenyl-2,3,4,9-tetrahydrospiro[carbazole-1,1′-cyclohexane]-4′-amine]
SNL Rat, i.v. [1]: 19% MPE
Ki (hERG) Mean [μM] (hERG ion channel): n.e.
